# Results taken from patent US10899738B2 (THE REGENTS OF THE UNIVERSITY OF MICHIGAN, priority 2016, dated 2021).
# Target: menin protein (Homo sapiens (Human), UniProt O00255)
# Experiment: biochemical
# Type: binding
# Conditions: FP competitive binding, menin protein 4 nM, FAM-MM2 probe 2 nM; for IC50: read-out: Menin Binding Affinity IC50
# Procedure, shortened: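 Test compounds displaced FAM-MM2 (2 nM) from 4 nM menin after 30 min equilibration at room temperature in PBS buffer containing bovine γ-globulin, 4% DMSO and Triton X-100. Binding was followed by fluorescence polarization. Competition curves were fitted by nonlinear regression to give IC50 and Ki.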
# Chain of menin protein (O00255 whole entry): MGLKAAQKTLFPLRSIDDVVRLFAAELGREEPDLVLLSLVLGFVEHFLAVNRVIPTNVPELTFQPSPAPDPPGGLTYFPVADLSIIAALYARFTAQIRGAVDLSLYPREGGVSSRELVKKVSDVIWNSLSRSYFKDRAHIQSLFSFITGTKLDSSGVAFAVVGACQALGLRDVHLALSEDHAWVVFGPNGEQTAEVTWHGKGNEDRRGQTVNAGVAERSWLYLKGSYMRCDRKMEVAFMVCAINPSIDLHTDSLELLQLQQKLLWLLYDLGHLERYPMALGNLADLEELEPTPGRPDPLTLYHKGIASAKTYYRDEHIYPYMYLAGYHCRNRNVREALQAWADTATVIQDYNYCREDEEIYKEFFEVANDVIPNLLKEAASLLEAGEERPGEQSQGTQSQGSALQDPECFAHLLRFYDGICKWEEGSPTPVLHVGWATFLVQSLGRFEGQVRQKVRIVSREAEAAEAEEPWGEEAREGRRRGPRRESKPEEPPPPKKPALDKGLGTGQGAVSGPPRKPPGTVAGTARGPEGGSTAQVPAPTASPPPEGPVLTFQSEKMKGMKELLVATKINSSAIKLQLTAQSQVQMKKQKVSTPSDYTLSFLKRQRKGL
SMILES,IC50 [µM],Menin Binding Affinity IC50 (μM)
"CCS(=O)(=O)c1ccc(N2CC(C(=O)N3CCC(C4(C5CCCC5)NCCc5c(F)cccc54)CC3)C2)cc1 (stereo not shown) [compound 116, (4-(1-cyclopentyl-5-fluoro-1,2,3,4-tetrahydroisoquinolin-1-yl)piperidin-1-yl)(1-(4-(ethylsulfonyl)phenyl)azetidin-3-yl)methanone]",6,
"N#Cc1cc2ccc(C(=O)N3CCC(CC4(C5CCCC5)NCCc5ccccc54)CC3)cc2[nH]1 (stereo not shown) [compound 118, 6-(4-((1-cyclopentyl-1,2,3,4-tetrahydroisoquinolin-1-yl)methyl)piperidine-1-carbonyl)-1H-indole-2-carbonitrile]",21.8,
"CC1CN(CCCOc2ccc(C#N)cc2)CCC1C(C#N)(c1ccccc1)C1CCCC1 (stereo not shown) [compound 120, 4-(3-(4-(cyano(cyclopentyl)(phenyl)methyl)-3-methylpiperidin-1-yl)propoxy)benzonitrile]",5.7,
"C[C@@H]1CC(C(C#N)(c2ccccc2)C2CCCC2)C[C@H](C)N1CCCOc1ccc(C#N)cc1 (stereo partly drawn) [compound 121, 4-(3-((2S,6R)-4-(cyano(cyclopentyl)(phenyl)methyl)-2,6-dimethylpiperidin-1-yl)propoxy)benzonitrile]",13.1,
"O=C(c1ccn(-c2ccc(S(=O)(=O)C3CC3)cc2)c1)N1CCC(C2(C3CCCC3)NCCc3ccccc32)CC1 (stereo not shown) [compound 122, (4-(1-cyclopentyl-1,2,3,4-tetrahydroisoquinolin-1-yl)piperidin-1-yl)(1-(4-(cyclopropylsulfonyl)phenyl)-1H-pyrrol-3-yl)methanone]",57.5,
"O=S(=O)(c1ccc(-n2ccc(CN3CCC(C4(C5CCCC5)NCCc5c(F)cccc54)CC3)c2)cc1)C1CC1 (stereo not shown) [compound 123, 1-cyclopentyl-1-(1-((1-(4-(cyclopropylsulfonyl)phenyl)-1H-pyrrol-3-yl)methyl)piperidin-4-yl)-5-fluoro-1,2,3,4-tetrahydroisoquinoline]",,No inhibition
"N#Cc1ccc(OCCCNc2ncc(C(O)(c3ccccc3)C3CCCC3)cn2)cc1 (stereo not shown) [compound 124, 4-(3-((5-(cyclopentyl(hydroxy)(phenyl)methyl)pyrimidin-2-yl)amino)propoxy)benzonitrile]",,No inhibition
"N#Cc1ccc(OCCCNc2ccc(C(O)(c3ccccc3)C3CCCC3)cn2)cc1 (stereo not shown) [compound 125, 4-(3-((5-(cyclopentyl(hydroxy)(phenyl)methyl)pyridin-2-yl)amino)propoxy)benzonitrile]",,No inhibition
"N#CC(c1ccccc1)(C1CCCC1)C1CCN(CCCOc2ccc(S(=O)(=O)c3ccccc3)cc2)CC1 (stereo not shown) [compound 126, 2-cyclopentyl-2-phenyl-2-(1-(3-(4-(phenylsulfonyl)phenoxy)propyl)piperidin-4-yl)acetonitrile]",58.4,
"CC(COc1ccc(C#N)cc1)CN1CCC(C(C#N)(c2ccccc2)C2CCCC2)CC1 (stereo not shown) [compound 127, 4-(3-(4-(cyano(cyclopentyl)(phenyl)methyl)piperidin-1-yl)-2-methylpropoxy)benzonitrile]",294,
"N#Cc1ccc(N2CC(C(=O)N3CCC(C4(C5CCCC5)NCCc5ccccc54)CC3)C2)cc1 (stereo not shown) [compound 128, 4-(3-(4-(1-cyclopentyl-1,2,3,4-tetrahydroisoquinolin-1-yl)piperidine-1-carbonyl)azetidin-1-yl)benzonitrile]",4.1,
"CS(=O)(=O)c1ccc(N2CC(CN3CCC(C4(C5CCCC5)NCCc5ccccc54)CC3)C2)cc1 (stereo not shown) [compound 132, 1-cyclopentyl-1-(1-((1-(4-(methylsulfonyl)phenyl)azetidin-3-yl)methyl)piperidin-4-yl)-1,2,3,4-tetrahydroisoquinoline]",0.077,
"Cc1cc(C#N)ccc1N1CC(CN2CCC(C3(C4CCCC4)NCCc4ccccc43)CC2)C1 (stereo not shown) [compound 138, 4-(3-((4-(1-cyclopentyl-1,2,3,4-tetrahydroisoquinolin-1-yl)piperidin-1-yl)methyl)azetidin-1-yl)-3-methylbenzonitrile]",0.099,
"N#Cc1ccc(N2CC(CN3CCC(C4(C5CCCC5)NCCc5ccccc54)CC3)C2)c(Cl)c1 (stereo not shown) [compound 139, 3-chloro-4-(3-((4-(1-cyclopentyl-1,2,3,4-tetrahydroisoquinolin-1-yl)piperidin-1-yl)methyl)azetidin-1-yl)benzonitrile]",0.073,
"O=S(=O)(c1ccc(N2CC(F)(CN3CCC(C4(C5CCCC5)NCCc5ccccc54)CC3)C2)cc1)C1CC1 (stereo not shown) [compound 140, 1-cyclopentyl-1-(1-((1-(4-(cyclopropylsulfonyl)phenyl)-3-fluoroazetidin-3-yl)methyl)piperidin-4-yl)-1,2,3,4-tetrahydroisoquinoline]",0.104,
"CCN1Cc2ccccc2C(C2CCCC2)(C2CCN(CC3CN(c4ccc(S(=O)(=O)c5ccnc(C)c5)cc4)C3)CC2)C1 (stereo not shown) [compound 154, 4-cyclopentyl-2-ethyl-4-(1-((1-(4-((2-methylpyridin-4-yl)sulfonyl)phenyl)azetidin-3-yl)methyl)piperidin-4-yl)-1,2,3,4-tetrahydroisoquinoline]",0.006,

SMILES,IC50 [µM],Menin Binding Affinity IC50 (μM)
"CCc1cc(S(=O)(=O)c2ccc(N3CC(CN4CCC(C5(C6CCCC6)CN(CC)Cc6ccccc65)CC4)C3)cc2)ccn1 (stereo not shown) [compound 155, 4-cyclopentyl-2-ethyl-4-(1-((1-(4-((2-ethylpyridin-4-yl)sulfonyl)phenyl)azetidin-3-yl)methyl)piperidin-4-yl)-1,2,3,4-tetrahydroisoquinoline]",0.016,
"CCN1Cc2ccccc2C(C2CCCC2)(C2CCN(S(=O)(=O)C3CN(c4ccc(C#N)cc4)C3)CC2)C1 (stereo not shown) [compound 159, 4-(3-((4-(4-cyclopentyl-2-ethyl-1,2,3,4-tetrahydroisoquinolin-4-yl)piperidin-1-yl)sulfonyl)azetidin-1-yl)benzonitrile]",,No inhibition
"CCN1Cc2ccccc2C(C2CCCC2)(C2CCN(S(=O)(=O)C3CN(c4ccc(S(=O)(=O)c5ccncc5)cc4)C3)CC2)C1 (stereo not shown) [compound 160, 4-cyclopentyl-2-ethyl-4-(1-((1-(4-(pyridin-4-ylsulfonyl)phenyl)azetidin-3-yl)sulfonyl)piperidin-4-yl)-1,2,3,4-tetrahydroisoquinoline]",,No inhibition
"CCN1Cc2ccccc2C(C2CCCC2)(C2CCN(CC3(C)CN(c4ccc(S(=O)(=O)c5ccncc5)cc4)C3)CC2)C1 (stereo not shown) [compound 161, 4-cyclopentyl-2-ethyl-4-(1-((3-methyl-1-(4-(pyridin-4-ylsulfonyl)phenyl)azetidin-3-yl)methyl)piperidin-4-yl)-1,2,3,4-tetrahydroisoquinoline]",0.021,
"CCN1Cc2ccccc2C(C2CCCC2)(C2CCN(Cc3ccccc3Oc3ccc(S(=O)(=O)c4ccncc4)cc3)CC2)C1 (stereo not shown) [compound 162, 4-cyclopentyl-2-ethyl-4-(1-(2-(4-(pyridin-4-ylsulfonyl)phenoxy)benzyl)piperidin-4-yl)-1,2,3,4-tetrahydroisoquinoline]",,No inhibition
"CCN1Cc2ccccc2C(C2CCCC2)(C2CCN(Cc3ccccc3Oc3ccc(C#N)cc3)CC2)C1 (stereo not shown) [compound 163, 4-(2-((4-(4-cyclopentyl-2-ethyl-1,2,3,4-tetrahydroisoquinolin-4-yl)piperidin-1-yl)methyl)phenoxy)benzonitrile]",,No inhibition
"CN1CCC(C2(C3CCCCN3)CN(C)Cc3ccccc32)CC1 (stereo not shown) [compound 166, 2-methyl-4-(1-methylpiperidin-4-yl)-4-(piperidin-2-yl)-1,2,3,4-tetrahydroisoquinoline]",1410,
"CN1CCC(C2(C3C=CCCN3)CN(C)Cc3ccccc32)CC1 (stereo not shown) [compound 167, 2-methyl-4-(1-methylpiperidin-4-yl)-4-(1,2,5,6-tetrahydropyridin-2-yl)-1,2,3,4-tetrahydroisoquinoline]",172,
"CS(=O)(=O)c1ccc(N2CC(CN3CCC(C(C#N)(c4ccccc4)C4CCC(=O)C4)CC3)C2)cc1 (stereo not shown) [compound 169, 2-(1-((1-(4-(methylsulfonyl)phenyl)azetidin-3-yl)methyl)piperidin-4-yl)-2-(3-oxocyclopentyl)-2-phenylacetonitrile]",49.9,
"CN1Cc2ccccc2C(c2ccccn2)(C2CCN(CC3CN(c4ccc(S(C)(=O)=O)cc4)C3)CC2)C1 (stereo not shown) [compound 170, 2-methyl-4-(1-((1-(4-(methylsulfonyl)phenyl)azetidin-3-yl)methyl)piperidin-4-yl)-4-(pyridin-2-yl)-1,2,3,4-tetrahydroisoquinoline]",47.6,
"CCC(C)CC1(C2CCN(CCCOc3ccc(C#N)cc3)CC2)NCCc2ccccc21 (stereo not shown) [compound 172, 4-(3-(4-(1-(2-methylbutyl)-1,2,3,4-tetrahydroisoquinolin-1-yl)piperidin-1-yl)propoxy)benzonitrile]",11.2,
"C=C(C)CC1(C2CCN(CCCOc3ccc(C#N)cc3)CC2)NCCc2ccccc21 (stereo not shown) [compound 173, 4-(3-(4-(1-(2-methylallyl)-1,2,3,4-tetrahydroisoquinolin-1-yl)piperidin-1-yl)propoxy)benzonitrile]",3,
"CO[C@H]1CCC[C@@H]1C(C#N)(c1ccccc1)C1CCN(CCCOc2ccc(C#N)cc2)CC1 (stereo partly drawn) [compound 174, 4-(3-(4-(cyano((1R,2S)-2-methoxycyclopentyl)(phenyl)methyl)piperidin-1-yl)propoxy)benzonitrile]",24.6,
"N#CC(c1ccccc1)(C1CCCC1)C1CCN(CC2CN(c3ccc(S(=O)(=O)c4ccncc4)cc3)C2)CC1 (stereo not shown) [compound 190, 2-cyclopentyl-2-phenyl-2-(1-((1-(4-(pyridin-4-ylsulfonyl)phenyl)azetidin-3-yl)methyl)piperidin-4-yl)acetonitrile]",2,
"Cc1cc(S(=O)(=O)c2ccc(N3CC(CN4CCC(C5(C6=CCCC6)CN(C)Cc6ccccc65)CC4)C3)cc2)ccn1 (stereo not shown) [compound 205, 4-(cyclopent-1-en-1-yl)-2-methyl-4-(1-((1-(4-((2-methylpyridin-4-yl)sulfonyl)phenyl)azetidin-3-yl)methyl)piperidin-4-yl)-1,2,3,4-tetrahydroisoquinoline]",0.088,
